SMILES strings stand for the structures.

One data set concerns Zebrafish larvae. The experiment in a line: Absorption of fluorescently labelled emetine, free and in pH-type liposomes, by Zebrafish larvae. In kind it is in vivo. The protocol: To compare the uptake of emetine and pH-type liposomes with emetine, Zebrafish larvae were exposed to fluorescently labelled free emetine and fluorescently labelled emetine encapsulated in pH-type liposomes (synthesis identical to that of 14pHEM) for 4 and 48 h in a concentration range from 0.73 μM to 14.7 μM for emetine and 4.41 μM to 8.82 μM for pH-type liposomes with fluorescent emetine per emetine. Photographs of fish from each group were taken at the final time point to monitor the intensity of fluorescence from absorbed emetine. A Discovery V8 stereoscopic optical microscope and Zeiss equipment were used for the observations.

The nature of data set [1]: Acute toxicity test on Zebrafish larvae, emetine and 14 pH EM liposomes, 24 and 48 h. The settings on record: in vivo, 48 h exposure, 2 dpf larvae, calculated for emetine, read-out: half maximal lethal concentration (LC50). Set-up: species or system Zebrafish (Danio rerio). Here is the method: In order to compare the toxicity of emetine and 14 pH EM liposomes with emetine, an acute toxicity test was conducted on Zebrafish (Danio rerio). The test was designed to determine the acute or lethal toxicity of the formulations on the embryonic stages of the fish. Briefly, Zebrafish 2 dpf larvae were treated with emetine and 14 pH EM liposomes with emetine for 24 and 48 hours at concentrations ranging from 0.73 μM to 125 μM calculated for emetine. […] The water for embryo culture and solution preparation was embryo culture medium (E3 solution: 5 mmol/L NaCl, 0.17 mmol/L KCl, 0.33 mmol/L CaCl2 and 0.33 mmol/L MgSO4, containing no methylene blue, and with a pH value of approximately 7.2). The experiment was carried out in 24-well plates, 5 embryos per well, 10 per group. The plate was covered and kept in an incubator set at 28±0.5° C. with a light/dark period of 12/12 hours. During the exposure period, larvae were tracked every 24 hours and four visual observations, including coagulation of fertilised eggs, lack of somite formation, lack of separation of tail bud from yolk sac and lack of heartbeat, were recorded as indicators of mortality.

For data set [2] the following is noted: phase I and II clinical trials; cited from earlier work.
Data set [3] in a line: Acute toxicity test on Zebrafish larvae, emetine / BEM and staurosporine / BST liposomes, 96 h. The settings on record: 96 h incubation, staurosporine free or in BST. In kind it is in vivo, Zebrafish (Danio rerio). Here is the method:
In order to compare the toxicity of emetine and staurosporine with the same drugs loaded into BpH liposomes, an acute toxicity test was conducted on Zebrafish (Danio rerio). The test was designed to determine the acute or lethal toxicity of the chemicals on the embryonic stages of the fish. Briefly, zebrafish larvae were treated with emetine and […] liposomes or staurospoine and staurosporine with BST liposomes for a period of 96 hours.
The embryo culture fluid and solution preparation was embryo culture medium (E3 solution: 5 mmol/L NaCl, 0.17 mmol/L KCl, 0.33 mmol/L CaCl2 and 0.33 mmol/L MgSO4, containing no methylene blue, and with a pH value of approximately 7.2). The experiment was carried out in 24-well plates, 5 embryos per well, 10 per group. The plate was covered and kept in an incubator set at 28±0.5° C. with a light/dark period of 12/12 hours. During the exposure period, larvae were tracked every 24 h and four visual observations, including coagulation of fertilised eggs, lack of somite formation, lack of separation of tail bud from yolk sac and lack of heartbeat, were recorded as indicators of mortality. At the end of the exposure period (96 hpf), acute toxicity was determined based on a positive result from any of the four recorded visual observations and the LC50 was calculated. Liposomes alone without drug loading were also tested.

With `CC[C@H]1CN2CCc3cc(OC)c(OC)cc3[C@@H]2C[C@@H]1C[C@H]1NCCc2cc(OC)c(OC)cc21` [emetine], the “location of absorbed emetine in larvae” value in the data set with Zebrafish larvae (fluorescence microscopy) is “within the yolk of the larvae, especially in the liver and intestine region”. Besides, the “uptake / amount of absorbed emetine” value in the data set on Zebrafish larvae (free 1.47, 3.67, 7.35 μM, in liposomes 4.41 and 8.82 μM) is “increases with dose”. Moreover, the LC50 at 48 h in data set [1] was 5.64 µM. In data set [2], the therapeutic index entry is listed as “very limited” and the “toxicity on increasing the dose” value was “cardiac toxicity”.

In data set [3], `CN[C@@H]1C[C@H]2O[C@@](C)([C@@H]1OC)n1c3ccccc3c3c4c(c5c6ccccc6n2c5c31)C(=O)NC4` [staurosporine] registered an LC50 at 96 h of 0.017 µM.

Source of the values: patent US20260306403A1, “MODIFIED LIPOSOME FOR DRUG DELIVERY, USE OF LIPOSOME FOR DRUG DELIVERY, ESPECIALLY WITH ANTI-CANCER ACTIVITY, AND WAYS TO LOAD LIPOSOME WITH DRUGS, ESPECIALLY WITH ANTI-CANCER ACTIVITY” (BS BIOTECHNA SPOLKA AKCYJNA, priority 2023, published 2026).
